From patent EP1056700B1, “MEDICINAL USES OF PHENYLALKANOLS AND DERIVATES” (ZingoTX Pty Ltd, priority 1997, dated 1999)

Tests used:
[1] = tested on: guinea pig atria; assay: Organ bath assay on isolated guinea pig atria (rate and force of contraction); details: guinea pig atria; for HEART RATE / FORCE OF CONTRACT^n: result in words
How it was run: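 Test substances (DMSO, final 2.5 %) applied up to a maximum of 50 µM. Preparation: isolated atria of young (3-4 wk) male guinea pigs under 1 g resting tension in carbogen-oxygenated Krebs-Henseleit, baseline stable 20 min. Read-outs: beating rate and contractile force.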

[2] = target: T1, SR Ca^2+-ATPase (Canis lupus familiaris, UniProt O46674); assay: Sarcoplasmic reticulum Ca^2+-ATPase assay; format: biochemical, dog; details: for SR Ca^2+-ATPase Activity: 0 µM = 100, dog cardiac SR; for IC50: read-out: SR Ca^2+-ATPase IC50 = conc. for 50% inhibition
T1 construct: Effect of gingerols and their derivatives on the Ca^2+-ATPase activity of dog cardiac SR; from tissue; host or cells: dog heart (cardiac sarcoplasmic reticulum)
T1 sequence (O46674 whole entry): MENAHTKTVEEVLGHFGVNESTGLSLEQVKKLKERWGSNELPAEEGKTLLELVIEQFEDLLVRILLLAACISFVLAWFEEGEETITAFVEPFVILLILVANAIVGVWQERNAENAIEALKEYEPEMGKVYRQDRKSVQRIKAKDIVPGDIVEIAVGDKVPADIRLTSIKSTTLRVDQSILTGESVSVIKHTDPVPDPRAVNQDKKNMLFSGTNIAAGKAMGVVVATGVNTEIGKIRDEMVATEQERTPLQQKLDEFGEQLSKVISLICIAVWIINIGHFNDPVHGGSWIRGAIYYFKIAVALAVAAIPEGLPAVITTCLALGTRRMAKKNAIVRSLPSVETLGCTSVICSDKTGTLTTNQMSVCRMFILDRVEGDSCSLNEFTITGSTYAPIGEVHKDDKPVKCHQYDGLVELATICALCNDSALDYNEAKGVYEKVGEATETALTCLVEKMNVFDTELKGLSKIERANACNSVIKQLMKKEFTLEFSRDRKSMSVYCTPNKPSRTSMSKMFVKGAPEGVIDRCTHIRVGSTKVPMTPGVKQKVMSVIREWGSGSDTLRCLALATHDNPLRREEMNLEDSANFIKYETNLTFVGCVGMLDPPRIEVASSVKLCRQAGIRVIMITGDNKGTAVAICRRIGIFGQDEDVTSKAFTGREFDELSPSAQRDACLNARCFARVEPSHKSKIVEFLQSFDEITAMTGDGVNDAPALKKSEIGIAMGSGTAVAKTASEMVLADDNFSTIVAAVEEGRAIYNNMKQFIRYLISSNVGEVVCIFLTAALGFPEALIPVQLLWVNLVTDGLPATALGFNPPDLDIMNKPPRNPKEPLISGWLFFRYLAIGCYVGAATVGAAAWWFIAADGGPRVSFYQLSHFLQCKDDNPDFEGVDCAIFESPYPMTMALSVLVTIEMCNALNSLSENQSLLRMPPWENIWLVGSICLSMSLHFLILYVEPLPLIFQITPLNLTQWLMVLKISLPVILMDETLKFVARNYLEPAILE
Experimental: A portion at each concentration (54 µl) was aliquoted into 4 designated wells of the microplate (two of four wells were controls). Each well was mixed with ATP solution (20 mM, 6 µl), except the controls, using an 8 channel pipette. The controls were assayed in the absence of ATP or calcium.
The plate was incubated with the lid on, for 30 min at 37°C, colour reagent (160 µl) was then added and mixed with citrate solution (34%, 30 µl). The plate was developed at room temperature for 30 min then absorbance at 655 nm was read from the microplate reader. The Ca^2+-ATPase activity was quantitated, from a Pi standard curve, as concentration of liberated inorganic phosphate.
Stock solutions (10 mM) of test substance were prepared in DMSO, then series dilutions were made either in DMSO or in 1M HEPES to produce the dose-response concentrations. The maximum concentration of DMSO in the final assay solution was 2.5%.
Each concentration of test substance was assayed in duplicate in the presence and absence of ATP or calcium. Phosphate standards are run on each plate as follows:
Effect of gingerols and their derivatives on the Ca^2+-ATPase activity of dog cardiac SR.

[3] = tested on: DRG neuronal cells; assay: Peak [Ca^2+]i transients in cultured dorsal root ganglion neurons (Fura-2); format: cell-based, rat; details: 10 µM applied for 1 min, 2 mM Ca^2+
Experimental: DRG from neonatal (3-5 days old) rat or adult Sprague-Dawley rats were incubated in Hanks CMF saline with 0.05% collagenase and 0.25% trypsin for 25 min at 37° C. Individual cells were obtained by trituration with fire polished Pasteur pipettes of diminishing diameters. Neurones were isolated from the cell suspension in 30% Percoll and then plated on collagen coated coverslips or in 24-well plates, then cultured in neurobasal medium with B27 supplement, 50 ng/ml 2.5 S nerve growth factor, 2 mM 1-glutamine and 100 U/ml penicillin/streptomycin. Cultures were maintained at 37° C with 5% CO2. 30% Percoll increases the percentage of capsaicin-sensitive DRG neurones up to 70%. For peak [Ca^2+]i transients measurements, cells on coverslips were incubated with 5 µM Fura-2 AM for 30 min at 37° C. The coverslips were then mounted on a chamber attached to a fast sample application perfusion system which allows changing solutions in the second range. Recordings were made on the stage of a Nikon Diaphot inverted microscope fitted with a Nikon 40 x Fluo (NA 0.85) DL Ph3 or 40 x Fluo (NA 1.3) oil objective. [Ca^2+]i was calculated from dual excitation wavelength (340/380 nm) fluorescence measurements following an intracellular calibration procedure by the Grynkiewicz equation, using MCID M2/M4 v.3.0 (Imaging Res. Inc.) software. Cells were continuously perfused with a solution consisting of 140 mM NaCl, 2 mM CaCl2, 5 mM KCl, 20 mM HEPES, 10 mM glucose, pH 7.4. To study KCl evoked depolarisation, 50 mM NaCl was replaced by equimolar KCl. Cytoplasmic localisation of Fura-2 was tested with the Mn^2+ quenching technique (Dedov and Roufogalis, 1998). All experiments were performed at room temperature (20-23°C).
Typical changes in [Ca^2+]i upon depolarisation were evoked by 50 mM KCl and by application of 1 µM capsaicin; both were applied for 30 sec. Capsaicin-evoked peak [Ca^2+]i transients are characterised by a fast rise and long-steady state [Ca^2+]i clearance from the cytoplasm. In capsaicin-sensitive cells the half-time of cytoplasmic Ca^2+ clearance was proportional to the amplitudes of peak [Ca^2+]i transients.
To examine the effect of gingerol derivatives, one or several compounds in succession at a concentration of 10 µM were applied for 1 min to the DRG neuronal cells followed by washing out for 4 min with physiological solution. To the capsaicin-sensitive cells, 10 µM capsaicin and 50 mM KCl were applied, respectively, to confirm the viability of the cells. In addition, morphological appearances of the cells were also examined at the end of experiment. […]

[4] = tested on: rat mesenteric artery; assay: Vasodilation on rat mesenteric small arteries; details: for EC50: Rattus norvegicus, relaxation of small arteries (200-300 µm) precontracted with endothelin; for relaxation of rat mesenteric artery: result in words
Description: Small arteries (200-300 µm in diameter) isolated from rat mesentery were precontracted with endothelin prior to addition of the test substances and tested for relaxation.

[5] = tested on: Platelet rich plasma; assay: Platelet aggregation: [^3H]-serotonin release from platelet rich plasma, arachidonic acid initiated; format: cell-based; details: Homo sapiens, activation by EC50 concentration of arachidonic acid
Experimental: Blood was collected from healthy volunteers who had taken no medication in the previous two weeks. The anticoagulant used was 3.8 % trisodium citrate. Platelet rich plasma was prepared and incubated with [^3H]-serotonin. This was followed by addition of gingerol analogues. Platelet activation was initiated using the EC50 concentration for arachidonic acid. The percentage of [^3H]-serotonin release was measured using a liquid scintillation counter. Then, dose-response curves were established and IC50 values were obtained.

Row | IC50 [2] | SR Ca^2+-ATPase ↑ increase or stimulation ([2]; @ 50 µM) | IC50 [5] | SMILES | HEART RATE [1] | SR Ca^2+-ATPase Activity ([2]; 5 µM) | SR Ca^2+-ATPase Activity ([2]; 10 µM) | SR Ca^2+-ATPase Activity ([2]; 25 µM) | SR Ca^2+-ATPase Activity ([2]; 50 µM) | Number of capsaicin-sensitive cells responding [3] | Peak [Ca^2+]i (Average ±SD) [3] | SR Ca^2+-ATPase Activity ([2]; 1 µM) | FORCE OF CONTRACT^n [1] | further results
1 | ~100 µM | – | 70.4 ± 3.8 µM | CCCCCCCC(O)CC(=O)CCc1ccc(O)c(OC)c1 (stereo not shown) [[8]-gingerol, 5-hydroxy-1-(4-hydroxy-3-methoxyphenyl)dodecan-3-one, reference compound] | – | 158 | 165 | 200 | 139 | 7 | 279 ± 111 nM | 139 | – | FORCE OF CONTRACT^n ↑ increase ([1]; @ 3 (µM)): ↑160% @ 3; HEART RATE ↑ increase ([1]; @ 3 (µM)): ↑31% @ 3; time to increased cardiac contractility after addition of the drug [1]: 15 s; SR Ca^2+-ATPase ↑ increase or stimulation ([2]; @ 25 µM): ↑100% @ 25
2 | > 100 µM | ↑64% @ 50 | – | CCCCCCCC(O)CC(=O)CCc1ccc(OC)c(O)c1 (stereo not shown) [[8]-isogingerol, 5-hydroxy-1-(3-hydroxy-4-methoxyphenyl)dodecan-3-one, reference compound] | inactive | – | – | – | – | 2 | 281 ± 42 nM | – | inactive | –

More lines, now with the values behind:

Row | SMILES | IC50 [2] | SR Ca^2+-ATPase ↑ increase or stimulation ([2]; @ 50 µM) | IC50 [5] | HEART RATE [1] | SR Ca^2+-ATPase Activity ([2]; 5 µM) | SR Ca^2+-ATPase Activity ([2]; 10 µM) | SR Ca^2+-ATPase Activity ([2]; 25 µM) | SR Ca^2+-ATPase Activity ([2]; 50 µM) | Number of capsaicin-sensitive cells responding [3] | Peak [Ca^2+]i (Average ±SD) [3] | SR Ca^2+-ATPase Activity ([2]; 1 µM) | FORCE OF CONTRACT^n [1] | further results
3 | CCCCCCCC(O)CCCCc1ccc(O)c(OC)c1 (stereo not shown) [1-(4-hydroxy-3-methoxyphenyl)dodecan-5-ol] | ~25 µM | – | – | ↑weakly | 113 | 136 | 158 | 126 | 0 out of 5 | 0 nM | – | – | FORCE OF CONTRACT^n ↑ increase ([1]; @ 30 (µM)): ↑79% @ 30; SR Ca^2+-ATPase Activity ([2]; 100 µM): 87; SR Ca^2+-ATPase Activity ([2]; 200 µM): 18; SR Ca^2+-ATPase ↑ increase or stimulation ([2]; @ 25 µM): ↑57% @ 25
4 | CCCCCCCC(=O)CC(O)CCc1ccc(O)c(OC)c1 (stereo not shown) [3-hydroxy-1-(4-hydroxy-3-methoxyphenyl)dodecan-5-one] | > 100 µM | – | – | – | – | – | – | – | 5 | 167 ± 105 nM | – | – | EC50 [4]: 40 nM; relaxation of rat mesenteric artery [4]: showed potency; FORCE OF CONTRACT^n ↑ increase ([1]; @ 5 (µM)): ↑270% @ 5; FORCE OF CONTRACT^n ↑ increase ([1]; @ 10 (µM)): ↑130% @ 10; HEART RATE ↑ increase ([1]; @ 10 (µM)): ↑30% @ 10
5 | CCCCCCCC(O)CC(=O)CCc1ccc2c(c1)OCO2 (stereo not shown) [5-hydroxy-1-(3,4-methylenedioxyphenyl)dodecan-3-one] | – | – | – | – | – | – | – | – | 2 | 225 ± 78 nM | – | – | EC50 [4]: 690 nM; relaxation of rat mesenteric artery [4]: showed potency
6 | CCCCCC(O)CC(=O)CCc1ccc(O)c(OC)c1 (stereo not shown) [[6]-gingerol, 5-hydroxy-1-(4-hydroxy-3-methoxyphenyl)decan-3-one, reference compound] | > 100 µM | ↑60% @ 50 | 73.8 ± 6.6 µM | – | 120 | 117 | 137 | 160 | – | – | 121 | – | FORCE OF CONTRACT^n ↑ increase ([1]; @ 50 (µM)): ↑86% @ 50; HEART RATE ↑ increase ([1]; @ 50 (µM)): ↑10% @ 50
7 | CCCCCCCC(O)CC(=O)C=Cc1ccc(O)c(OC)c1 (stereo not shown) [[8]-dehydrogingerol, 5-hydroxy-1-(4-hydroxy-3-methoxyphenyl)dodecan-1-ene-3-one, reference compound] | ~50 µM | – | – | – | 88 | 92 | 95 | 65 | – | – | 93 | – | FORCE OF CONTRACT^n ↑ increase ([1]; @ 25 (µM)): ↑80% @ 25; HEART RATE ↑ increase ([1]; @ 25 (µM)): ↑17% @ 25; time for tension to reach maximum after addition of a dose [1]: a few mins; inhibition at 50 µM ([2]; @ 50 µM, read-out: SR Ca^2+-ATPase ↓ decrease or inhibition): 35%
8 | CCCCCCCC(O)CC(=O)CCc1ccc(O)cc1 (stereo not shown) [[8]-demethoxygingerol, 5-hydroxy-1-(4-hydroxyphenyl)dodecan-3-one] | > 100 µM | ↑60% @ 50 | – | inactive | – | – | – | – | 2 | 243 ± 71 nM | – | inactive | –
9 | CCCCCCCC(O)CC(O)CCc1ccc(O)c(OC)c1 (stereo not shown) [[8]-gingerdiol, 1-(4-hydroxy-3-methoxyphenyl)dodecane-3,5-diol, reference compound] | > 100 µM | ↑54% @ 50 | 82.6 ± 9 µM | inactive | – | – | – | – | 2 | 246 ± 35 nM | – | inactive | –
10 | CCCCCCCC(O)CC(=O)CCc1cccc(OC)c1O (stereo not shown) [[8]-orthogingerol, 5-hydroxy-1-(2-hydroxy-3-methoxyphenyl)dodecan-3-one] | > 100 µM | – | – | inactive | – | – | – | – | 2 | 245 ± 64 nM | – | inactive | SR Ca^2+-ATPase ↑ increase or stimulation ([2]; @ 100 µM): ↑40% @ 100
